What follows are molecules tested against human IRAK4 kinase domain (aa 154-460) (Homo sapiens (Human), UniProt Q9NWZ3) (assay: IRAK4 Enzymatic DELFIA Assay, Protocol B). Conditions: human IRAK4 kinase domain (aa 154-460), 0.6 mM ATP (KM); read-out: IRAK4 DELFIA Protocol B IC50.
Type: biochemical
Source text: IRAK4 Enzymatic DELFIA Assay, Protocol B.

Sequence of human IRAK4 kinase domain (aa 154-460) (Q9NWZ3 154-460): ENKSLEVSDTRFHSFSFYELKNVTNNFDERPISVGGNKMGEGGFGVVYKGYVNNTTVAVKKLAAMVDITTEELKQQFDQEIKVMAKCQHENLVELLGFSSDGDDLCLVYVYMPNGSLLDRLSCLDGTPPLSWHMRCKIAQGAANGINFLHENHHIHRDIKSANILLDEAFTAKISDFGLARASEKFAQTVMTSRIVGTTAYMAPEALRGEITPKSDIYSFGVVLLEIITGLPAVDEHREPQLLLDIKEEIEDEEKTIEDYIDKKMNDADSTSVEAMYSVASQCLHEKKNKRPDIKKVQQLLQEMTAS

Which IC50 does the source give for `CC(C)Oc1cc2c(O[C@@H]3CC4CC[C@H]3C4)ccnc2cc1C(N)=O` [Example 19, 4-[(1S,2R)-bicyclo[2.2.1]hept-2-yloxy]-6-(propan-2-yloxy)quinoline-7-carboxamide] here?
Its IC50 is 354 nM.

Which IC50 does the source give for `CC(C)Oc1cc2c(OC3CC[C@@H]4CNC[C@H]34)nccc2cc1C(N)=O` (stereo partly drawn) [Example 20, 1-[(3aR,6aS)-octahydrocyclopenta[c]pyrrol-4-yloxy]-7-(propan-2-yloxy)isoquinoline-6-carboxamide] here?
The IC50 was 102 nM.

`CC(C)Oc1cc2c(OC3CC[C@@H]4CNC[C@H]34)ccnc2cc1C(N)=O` (stereo partly drawn) [Example 21, 4-[(3aR,6aS)-octahydrocyclopenta[c]pyrrol-4-yloxy]-6-(propan-2-yloxy)quinoline-7-carboxamide] was tested. Which IC50 did it give?
The IC50 was 83 nM.

How did the IC50 turn out when `CC(C)Oc1cc2c(OC[C@H]3CCN(C(=O)CC#N)C3)ccnc2cc1C(N)=O` [Example 22, 4-{[(3S)-1-(cyanoacetyl)pyrrolidin-3-yl]methoxy}-6-(propan-2-yloxy)quinoline-7-carboxamide] was run?
Its IC50 is 45 nM.

Which IC50 does the source give for `CC(C)Oc1cc2c(OCC3CCOC3)nccc2cc1C(N)=O` (stereo not drawn) [Example 24, 7-(propan-2-yloxy)-1-(tetrahydrofuran-3-ylmethoxy)isoquinoline-6-carboxamide] here?
Its IC50 is 492 nM.

For `CC(C)Oc1cc2c(OCC3CCCCO3)nccc2cc1C(N)=O` (stereo not drawn) [Example 25, 7-(propan-2-yloxy)-1-(tetrahydro-2H-pyran-2-ylmethoxy)isoquinoline-6-carboxamide], which IC50 is on record?
Its IC50 is 1130 nM.

Which IC50 does the source give for `CC(C)Oc1cc2c(OCC3CCCS(=O)(=O)N3)nccc2cc1C(N)=O` (stereo not drawn) [Example 27, 1-[(1,1-dioxido-1,2-thiazinan-3-yl)methoxy]-7-(propan-2-yloxy)isoquinoline-6-carboxamide] here?
The IC50 was 2480 nM.

With `CC(C)Oc1cc2c(OC[C@H]3CCCNC3)nccc2cc1C(N)=O` [Example 28, 1-[(3S)-piperidin-3-ylmethoxy]-7-(propan-2-yloxy)isoquinoline-6-carboxamide] as the molecule, how does the IC50 read?
Its IC50 is 1320 nM.

How did the IC50 turn out when `CC(C)Oc1cc2c(OCC3COC(=O)N3C)nccc2cc1C(N)=O` (stereo not drawn) [Example 29, 1-[(3-methyl-2-oxo-1,3-oxazolidin-4-yl)methoxy]-7-(propan-2-yloxy)isoquinoline-6-carboxamide] was run?
The IC50 was 76 nM.

`CC(C)Oc1cc2c(OC[C@H]3CCCO3)nccc2cc1C(N)=O` [Example 30, 7-(propan-2-yloxy)-1-[(2R)-tetrahydrofuran-2-ylmethoxy]isoquinoline-6-carboxamide] was tested. Which IC50 did it give?
The IC50 was 2440 nM.

With `CC(C)Oc1cc2c(OC[C@@H]3CCCN3C)nccc2cc1C(N)=O` [Example 31, 1-{[(2S)-1-methylpyrrolidin-2-yl]methoxy}-7-(propan-2-yloxy)isoquinoline-6-carboxamide] as the molecule, how does the IC50 read?
The IC50 was 2620 nM.

`CC(=O)N1CCC(COc2nccc3cc(C(N)=O)c(OC(C)C)cc23)CC1` [Example 33, 1-[(1-acetylpiperidin-4-yl)methoxy]-7-(propan-2-yloxy)isoquinoline-6-carboxamide] was tested. Which IC50 did it give?
The IC50 was 2860 nM.

`CO[C@H]1CNC[C@@H]1COc1nccc2cc(C(N)=O)c(OC(C)C)cc12` [Example 34, 1-{[(3R,4R)-4-methoxypyrrolidin-3-yl]methoxy}-7-(propan-2-yloxy)isoquinoline-6-carboxamide] was tested. Which IC50 did it give?
The IC50 was 483 nM.

With `CC(C)Oc1cc2c(OCC3CNC(=O)O3)nccc2cc1C(N)=O` (stereo not drawn) [Example 35, 1-[(2-oxo-1,3-oxazolidin-5-yl)methoxy]-7-(propan-2-yloxy)isoquinoline-6-carboxamide] as the molecule, how does the IC50 read?
The IC50 was 16 nM.

How did the IC50 turn out when `CC(C)Oc1cc2c(OCC3CCOCC3)nccc2cc1C(N)=O` [Example 36, 7-(propan-2-yloxy)-1-(tetrahydro-2H-pyran-4-ylmethoxy)isoquinoline-6-carboxamide] was run?
The IC50 was 735 nM.

`CC(C)Oc1cc2c(OC[C@@H]3CNCCO3)nccc2cc1C(N)=O` [Example 37, 1-[(2S)-morpholin-2-ylmethoxy]-7-(propan-2-yloxy)isoquinoline-6-carboxamide] was tested. Which IC50 did it give?
The IC50 was 3520 nM.

`CC(C)Oc1cc2c(OCC3(F)CCNCC3)nccc2cc1C(N)=O` [Example 38, 1-[(4-fluoropiperidin-4-yl)methoxy]-7-(propan-2-yloxy)isoquinoline-6-carboxamide] was tested. Which IC50 did it give?
Its IC50 is 4640 nM.

`CC(C)Oc1cc2c(OCC3CNCCO3)nccc2cc1C(N)=O` (stereo not drawn) [Example 39, 1-(morpholin-2-ylmethoxy)-7-(propan-2-yloxy)isoquinoline-6-carboxamide] was tested. Which IC50 did it give?
Its IC50 is 386 nM.

For `CC(C)Oc1cc2c(OC[C@]34CNC[C@H]3C4)nccc2cc1C(N)=O` [Example 40, 1-[(1S,5S)-3-azabicyclo[3.1.0]hex-1-ylmethoxy]-7-(propan-2-yloxy)isoquinoline-6-carboxamide], which IC50 is on record?
Its IC50 is 109 nM.

With `CC(C)Oc1cc2c(OC[C@H]3CCCN3)nccc2cc1C(N)=O` [Example 41, 7-(propan-2-yloxy)-1-[(2R)-pyrrolidin-2-ylmethoxy]isoquinoline-6-carboxamide] as the molecule, how does the IC50 read?
Its IC50 is 2350 nM.

With `CC(C)Oc1cc2c(OC[C@H]3[C@@H]4CNC[C@@H]43)nccc2cc1C(N)=O` [Example 42, 1-[(1R,5S,6r)-3-azabicyclo[3.1.0]hex-6-ylmethoxy]-7-(propan-2-yloxy)isoquinoline-6-carboxamide] as the molecule, how does the IC50 read?
Its IC50 is 219 nM.

`CC(C)Oc1cc2c(OCC3CCCCN3)nccc2cc1C(N)=O` (stereo not drawn) [Example 43, 1-(piperidin-2-ylmethoxy)-7-(propan-2-yloxy)isoquinoline-6-carboxamide] was tested. Which IC50 did it give?
The IC50 was 3320 nM.

For `CC(C)Oc1cc2c(OCC3CN(C)CCO3)nccc2cc1C(N)=O` (stereo not drawn) [Example 44, 1-[(4-methylmorpholin-2-yl)methoxy]-7-(propan-2-yloxy)isoquinoline-6-carboxamide], which IC50 is on record?
Its IC50 is 4260 nM.

With `CC(C)Oc1cc2c(OCC3CCCN(C)C3)nccc2cc1C(N)=O` (stereo not drawn) [Example 45, 1-[(1-methylpiperidin-3-yl)methoxy]-7-(propan-2-yloxy)isoquinoline-6-carboxamide] as the molecule, how does the IC50 read?
Its IC50 is 1920 nM.

With `CC(C)Oc1cc2c(OC[C@H]3CNC[C@@H]3C(F)(F)F)nccc2cc1C(N)=O` [Example 46, 7-(propan-2-yloxy)-1-{[(3R,4R)-4-(trifluoromethyl)pyrrolidin-3-yl]methoxy}isoquinoline-6-carboxamide] as the molecule, how does the IC50 read?
Its IC50 is 237 nM.

`CC(C)Oc1cc2c(OC[C@H]3CNCCO3)nccc2cc1C(N)=O` [Example 47, 1-[(2R)-morpholin-2-ylmethoxy]-7-(propan-2-yloxy)isoquinoline-6-carboxamide] was tested. Which IC50 did it give?
The IC50 was 2790 nM.

How did the IC50 turn out when `CC(C)Oc1cc2c(OC[C@@H]3CCCNC3)nccc2cc1C(N)=O` [Example 48, 1-[(3R)-piperidin-3-ylmethoxy]-7-(propan-2-yloxy)isoquinoline-6-carboxamide] was run?
The IC50 was 366 nM.

Which IC50 does the source give for `CC(C)Oc1cc2c(OC[C@H]3CCNC3)nccc2cc1C(N)=O` [Example 49, 7-(propan-2-yloxy)-1-[(3S)-pyrrolidin-3-ylmethoxy]isoquinoline-6-carboxamide] here?
Its IC50 is 451 nM.

For `CC(C)Oc1cc2c(OC[C@H]3CCNC3)ccnc2cc1C(N)=O` [Example 50, 6-(propan-2-yloxy)-4-[(3S)-pyrrolidin-3-ylmethoxy]quinoline-7-carboxamide], which IC50 is on record?
The IC50 was 701 nM.

How did the IC50 turn out when `CC(C)Oc1cc2c(OC[C@@H]3CNCCO3)ccnc2cc1C(N)=O` [Example 51, 4-[(2S)-morpholin-2-ylmethoxy]-6-(propan-2-yloxy)quinoline-7-carboxamide] was run?
The IC50 was 2410 nM.

Which IC50 does the source give for `CC(C)Oc1cc2c(OC3CCC34CCNCC4)ccnc2cc1C(N)=O` (stereo not drawn) [Example 52, 4-(7-azaspiro[3.5]non-1-yloxy)-6-(propan-2-yloxy)quinoline-7-carboxamide] here?
The IC50 was 4240 nM.

Which IC50 does the source give for `CC(C)Oc1cc2c(OC[C@H]3CNCCO3)ccnc2cc1C(N)=O` [Example 53, 4-[(2R)-morpholin-2-ylmethoxy]-6-(propan-2-yloxy)quinoline-7-carboxamide] here?
Its IC50 is 2380 nM.

`CC(C)Oc1cc2c(OCC3(F)CCNCC3)ccnc2cc1C(N)=O` [Example 54, 4-[(4-fluoropiperidin-4-yl)methoxy]-6-(propan-2-yloxy)quinoline-7-carboxamide] was tested. Which IC50 did it give?
Its IC50 is 2440 nM.

How did the IC50 turn out when `CC(C)Oc1cc2c(OC[C@@]3(C)CNC[C@@H]3C)ccnc2cc1C(N)=O` [Example 55, 4-{[(3R,4R)-3,4-dimethylpyrrolidin-3-yl]methoxy}-6-(propan-2-yloxy)quinoline-7-carboxamide] was run?
Its IC50 is 264 nM.

With `CC(C)Oc1cc2c(OCC3(C)CCNCC3)ccnc2cc1C(N)=O` [Example 56, 4-[(4-methylpiperidin-4-yl)methoxy]-6-(propan-2-yloxy)quinoline-7-carboxamide] as the molecule, how does the IC50 read?
The IC50 was 1490 nM.

`CC(C)Oc1cc2c(OC[C@H]3CNC(=O)O3)ccnc2cc1C(N)=O` [Example 57, 4-{[(5R)-2-oxo-1,3-oxazolidin-5-yl]methoxy}-6-(propan-2-yloxy)quinoline-7-carboxamide] was tested. Which IC50 did it give?
Its IC50 is 5.8 nM.

How did the IC50 turn out when `CC(C)Oc1cc2c(OCC3(C)CCCNC3)ccnc2cc1C(N)=O` (stereo not drawn) [Example 58, 4-[(3-methylpiperidin-3-yl)methoxy]-6-(propan-2-yloxy)quinoline-7-carboxamide] was run?
Its IC50 is 144 nM.

Which IC50 does the source give for `CC(C)Oc1cc2c(OCC3CCCNC3)ccnc2cc1C(N)=O` (stereo not drawn) [Example 59, 4-(piperidin-3-ylmethoxy)-6-(propan-2-yloxy)quinoline-7-carboxamide] here?
Its IC50 is 243 nM.

How did the IC50 turn out when `CC(C)Oc1cc2c(OC[C@H]3CCCN3C(=O)CC#N)nccc2cc1C(N)=O` [Example 61, 1-{[(2R)-1-(cyanoacetyl)pyrrolidin-2-yl]methoxy}-7-(propan-2-yloxy)isoquinoline-6-carboxamide] was run?
The IC50 was 249 nM.

`CC(C)Oc1cc2c(OCC3CCN(C(=O)CC#N)CC3)nccc2cc1C(N)=O` [Example 62, 1-{[1-(cyanoacetyl)piperidin-4-yl]methoxy}-7-(propan-2-yloxy)isoquinoline-6-carboxamide] was tested. Which IC50 did it give?
The IC50 was 1290 nM.

With `CC(C)Oc1cc2c(OC[C@@H]3CCCN3C(=O)CC#N)nccc2cc1C(N)=O` [Example 63, 1-{[(2S)-1-(cyanoacetyl)pyrrolidin-2-yl]methoxy}-7-(propan-2-yloxy)isoquinoline-6-carboxamide] as the molecule, how does the IC50 read?
Its IC50 is 252 nM.

Which IC50 does the source give for `CC(C)Oc1cc2c(OC[C@H]3COCCN3C(=O)CC#N)nccc2cc1C(N)=O` [Example 64, 1-{[(3R)-4-(cyanoacetyl)morpholin-3-yl]methoxy}-7-(propan-2-yloxy)isoquinoline-6-carboxamide] here?
The IC50 was 641 nM.

From patent US10329302B2, “Bicyclic-fused heteroaryl or aryl compounds” (Pfizer Inc., priority 2014, dated 2019)
